What was measured:
[1] = system: rat embryonic mesencephalic cells; assay: [3H]dopamine uptake, medium change (glutamate receptor dependent) model of cell death; conditions: 50 μM
Procedure: Preparations are then added to 10 ml Ecoscint (National Diagnostics) and counted in a scintillation spectrometer.
(§1) In these experiments, cells were plated and allowed to stabilize for several days.

[2] = system: cultured rat mesencephalic cells; assay: TH immunochemistry after 100 μM NMDA exposure; conditions: 50 μM; single sample; listed as Deprenyl
Procedure: Rat mesencephalic cell cultures were exposed to 100 μM NMDA and incubated as described above in connection with FIG. 16.

MAO-A [3] = biological target: T1, MAO-A (Cavia porcellus, UniProt H0UVA2); assay: In vivo MAO-A inhibition in guinea pig cortex (hippocampus) after 5 s.c. treatments; conditions: sc, read-out: inhibition of MAO-A activity
T1 sequence (H0UVA2 1-461): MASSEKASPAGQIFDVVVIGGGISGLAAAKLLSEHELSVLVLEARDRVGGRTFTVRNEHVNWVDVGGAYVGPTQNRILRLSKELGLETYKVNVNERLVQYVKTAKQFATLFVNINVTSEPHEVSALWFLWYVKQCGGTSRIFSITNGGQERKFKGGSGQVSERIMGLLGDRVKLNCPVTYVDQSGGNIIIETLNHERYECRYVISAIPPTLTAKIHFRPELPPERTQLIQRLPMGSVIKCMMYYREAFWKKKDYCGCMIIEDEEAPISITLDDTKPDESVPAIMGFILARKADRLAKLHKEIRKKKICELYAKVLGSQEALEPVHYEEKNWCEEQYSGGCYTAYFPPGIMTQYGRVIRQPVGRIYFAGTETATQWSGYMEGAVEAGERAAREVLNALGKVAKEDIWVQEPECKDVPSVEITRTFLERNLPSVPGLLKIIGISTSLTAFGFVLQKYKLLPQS
Procedure: Hippocampal homogenates containing enzyme were prepared, and assays in vitro for MAO-A and MAO-B activity.

[4] = system: rat embryonic mesencephalic cells; assay: TH positive cell survival, medium change (glutamate receptor dependent) model of cell death
Procedure: as §1

MAO-A [5] = biological target: T2, MAO-A (Rattus norvegicus, UniProt P21396); assay: Inhibition of MAO-A in rat cortex mitochondrial-rich fractions; conditions: read-out: Percent Inhibition MAO-A
T2 sequence (P21396 1-526): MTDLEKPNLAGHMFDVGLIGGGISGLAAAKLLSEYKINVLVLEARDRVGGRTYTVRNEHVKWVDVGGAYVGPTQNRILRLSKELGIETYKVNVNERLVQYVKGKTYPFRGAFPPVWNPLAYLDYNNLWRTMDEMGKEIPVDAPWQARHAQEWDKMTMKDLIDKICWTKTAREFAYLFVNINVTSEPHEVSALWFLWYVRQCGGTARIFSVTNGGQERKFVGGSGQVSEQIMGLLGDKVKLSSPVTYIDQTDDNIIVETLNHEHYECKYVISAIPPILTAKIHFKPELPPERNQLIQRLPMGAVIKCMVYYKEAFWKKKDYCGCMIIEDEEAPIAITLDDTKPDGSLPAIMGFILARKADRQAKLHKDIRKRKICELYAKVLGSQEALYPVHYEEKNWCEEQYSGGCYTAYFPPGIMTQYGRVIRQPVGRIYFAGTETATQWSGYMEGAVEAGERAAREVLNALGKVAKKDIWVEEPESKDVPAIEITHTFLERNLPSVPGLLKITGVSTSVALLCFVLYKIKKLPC

MAO-A [6] = biological target: T1, MAO-A; assay: MAO-A inhibition in guinea pig hippocampal homogenates in vitro; format: biochemical; parameters: specific substrates of MAO-A (^14C-serotonin) in guinea pig hippocampal homogenates; from tissue; host or cells: guinea pig hippocampal homogenates
From the text: Human platelet MAO is comprised exclusively of the type-B isoform of the enzyme. […] The present study also examined the two enantiomers of DMS for inhibitory activity with respect to the MAO-A and MAO-B in guinea pig hippocampal tissue. Guinea pig brain tissue is an excellent animal model for studying brain dopamine metabolism, the enzyme kinetics of the multiple forms of MAO and the inhibitory properties of novel agents that interact with these enzymes. The multiple forms of MAO in this animal species show similar kinetic properties to those found in human brain tissue. Finally, the test agents were administered to guinea pigs and the extent to which they might act as inhibitors of brain MAO in vivo was assessed.
In vitro: The test system utilized the in vitro conversion of specific substrates of MAO-A (^14C-serotonin) in guinea pig hippocampal homogenates or MAO-B (^14C-phenylethylamine) by human platelets and guinea pig hippocampal homogenates. […] A percent inhibition was calculated from these values.

C#CCN(C)[C@H](C)Cc1ccccc1 [Selegiline, (R)-N-α-dimethyl-N-2-propynylbenzeethanamine, reference compound]
neuron protection by measurement of dopamine uptake (FIG. 15) [1]: neuron protection | TH positive cells, cells/cm^2 [2]: 230 cells/cm^2 | inhibition at 1 mg/kg (MAO-A [3]): 36.1% | TH positive cells, cells/cm^2 ([4]; 50 μM, Mean, listed as Deprenyl): 344.2 cells/cm^2 | survival of dopaminergic neurons (TH staining and tritiated dopamine uptake, FIGS. 11 and 12) ([4]; 0.5, 5.0 or 50 μM, 4 days of daily medium changes): promotes the survival of dopaminergic neurons | inhibition at 0.03 µM (MAO-A [5]): 0% | MAO-A % Reduction 0 ± SEM (MAO-A [6]; Concentration 300 nM): 11.95 ± 2.4% | MAO-A % Reduction 0 ± SEM (MAO-A [6]; Concentration 1 μM): 22.1 ± 1.2% | MAO-A % Reduction 0 ± SEM (MAO-A [6]; Concentration 3 μM): 53.5 ± 2.7% | reduction in potency compared to selegiline, MAO-A (MAO-A [6]; figure in parentheses, times less potent): 1

— US20060167110A1 (priority 1995, published 2006)
